Experimental data: EPA's CvTdb concentration-time database

Tests used:
Rat [1] = experiment: concentration in liver after dosing; settings: 6 h; dosed: Potassium Perfluorobutane Sulfonate; 20 mg/kg; oral; Male; Harlan Sprague Dawley
Rat [2] = experiment: concentration in kidney after dosing; settings: 1 h; dosed: Potassium Perfluorobutane Sulfonate; 20 mg/kg; oral; Female; Harlan Sprague Dawley
Rat [3] = experiment: concentration in plasma after dosing; settings: dosed: Potassium Perfluorobutane Sulfonate, 4 mg/kg, iv, Male, F344
Rat [4] = experiment: concentration in plasma after dosing; settings: dosed: Potassium Perfluorobutane Sulfonate, 20 mg/kg, oral, Male, Harlan Sprague Dawley
Rat [5] = experiment: concentration in kidney after dosing; settings: 1 h; dosed: Potassium Perfluorobutane Sulfonate; 20 mg/kg; oral; Male; Harlan Sprague Dawley
Rat [6] = experiment: concentration in plasma after dosing; settings: 0.25 h; dosed: Potassium Perfluorobutane Sulfonate; 4 mg/kg; iv; Male; F344
Rat [7] = experiment: concentration in liver after dosing; settings: 3 h; dosed: Potassium Perfluorobutane Sulfonate; 20 mg/kg; oral; Male; Harlan Sprague Dawley
Rat [8] = experiment: concentration in plasma after dosing; settings: 1.5 h; dosed: Potassium Perfluorobutane Sulfonate; 4 mg/kg; oral; Male; Harlan Sprague Dawley
Rat [9] = experiment: concentration in plasma after dosing; settings: dosed: Potassium Perfluorobutane Sulfonate, 4 mg/kg, iv, Male, F344; remark: listed apart in the source
rat [10] = experiment: concentration in blood after dosing (ugEq/g tissue); settings: dosed: benzo[a]pyrene, iv, male, Wistar
Mouse [11] = experiment: concentration in plasma after dosing; settings: 10 min; dosed: 2-Hydroxy-4-methoxybenzophenone; 250 mg/kg; oral; Female; B6C3F1
Mouse [12] = experiment: concentration in plasma after dosing; settings: 2 h; dosed: 2-Hydroxy-4-methoxybenzophenone; 50 mg/kg; iv; Female; B6C3F1
Mouse [13] = experiment: concentration in plasma after dosing; settings: 3 h; dosed: 2-Hydroxy-4-methoxybenzophenone; 250 mg/kg; oral; Female; B6C3F1
Rat [14] = experiment: concentration in plasma after dosing; settings: dosed: 2-Hydroxy-4-methoxybenzophenone, 100 mg/kg, oral, Male, F344
Mouse [15] = experiment: concentration in plasma after dosing; settings: 3 h; dosed: 2-Hydroxy-4-methoxybenzophenone; 250 mg/kg; oral; Male; B6C3F1
Rat [16] = experiment: concentration in plasma after dosing; settings: dosed: 2-Hydroxy-4-methoxybenzophenone, 500 mg/kg, oral, Female, F344
Mouse [17] = experiment: concentration in plasma after dosing; settings: 3 h; dosed: 2-Hydroxy-4-methoxybenzophenone; 50 mg/kg; iv; Female; B6C3F1
Mouse [18] = experiment: concentration in plasma after dosing; settings: 3 h; dosed: 2-Hydroxy-4-methoxybenzophenone; 250 mg/kg; oral; Female; B6C3F1; remark: listed apart in the source
Rat [19] = experiment: concentration in liver after dosing; settings: 12 h; dosed: Perfluorooctanoic acid; 12 mg/kg; oral; Male; Harlan Sprague Dawley
Rat [20] = experiment: concentration in kidney after dosing; settings: 12 h; dosed: Fluorotelomer alcohol 8+2; 24 mg/kg; oral; Male; Harlan Sprague Dawley
Rat [21] = experiment: concentration in kidney after dosing; settings: 1 h; dosed: Fluorotelomer alcohol 8+2; 80 mg/kg; oral; Female; Harlan Sprague Dawley
Rat [22] = experiment: concentration in plasma after dosing; settings: dosed: 678-39-7, 40 mg/kg, iv, Male, F344
Rat [23] = experiment: concentration in plasma after dosing; settings: dosed: 678-39-7, 12 mg/kg, iv, Male, F344
Rat [24] = experiment: concentration in plasma after dosing; settings: dosed: 678-39-7, 12 mg/kg, iv, Male, F344; remark: listed apart in the source
Rat [25] = experiment: concentration in kidney after dosing; settings: 12 h; dosed: Perfluorooctanoic acid; 80 mg/kg; oral; Female; Harlan Sprague Dawley
Rat [26] = experiment: concentration in kidney after dosing; settings: 3 h; dosed: Fluorotelomer alcohol 8+2; 24 mg/kg; oral; Male; Harlan Sprague Dawley
Rat [27] = experiment: concentration in plasma after dosing; settings: dosed: Nitrite, 80 mg/kg, oral, Female, F344
Rat [28] = experiment: concentration in plasma after dosing; settings: 0.5 h; dosed: Nitrite; 80 mg/kg; oral; Female; F344
Rat [29] = experiment: concentration in plasma after dosing; settings: dosed: Nitrite, 80 mg/kg, oral, Female, F344; remark: listed apart in the source

O=S(=O)([O-])C(F)(F)C(F)(F)C(F)(F)C(F)(F)F.[K+] [Potassium Perfluorobutane Sulfonate]
Settings | concentration in kidney [ng/g] | concentration in liver [ng/g] | concentration in plasma [ng/mL]
Rat [1] | – | 51600 | –
Rat [2] | 19300 | – | –
Rat [5] | 28600 | – | –
Rat [6] | – | – | 17900
Rat [7] | – | 80000 | –
Rat [8] | – | – | 13500

Settings | concentration in plasma [ng/mL]
Rat [3], 0.75 h | 24500
Rat [3], 24 h | 575
Rat [4], 0.25 h | 30200
Rat [4], 24 h | 1070
Rat [9], 3 h | 476
Rat [9], 5 min | 29200

c1ccc2c(c1)cc1ccc3cccc4ccc2c1c34 [benzo[a]pyrene]
concentration in blood, rat [10]
Settings | 2 mg/kg | 6 mg/kg | 15 mg/kg
0.5 h | 0.66 | 2.42 | 13.8
0.75 h | 0.47 | 1.99 | 10.6
1 h | 0.42 | 1.72 | 8.52
1.5 h | 0.17 | 0.5 | 7.16
2 h | 0.35 | 0.14 | 3.93
3 h | – | 0.03 | 1.86
4 h | – | – | 0.19
5 h | – | 0.01 | 0.09
5 min | 2.64 | 4.66 | 28.8
6 h | – | – | 0.05
8 h | – | – | 0.02
10 min | 1.85 | 5 | 29.8
20 min | 1.2 | 3.78 | 15.9
24 h | – | – | 0.015
32 h | – | – | 0.002

COc1ccc(C(=O)c2ccccc2)c(O)c1 [2-Hydroxy-4-methoxybenzophenone]
Settings | concentration in plasma [ng/mL]
Mouse [11] | 117
Mouse [12] | 311
Mouse [13] | 35.5
Mouse [15] | 45.1
Mouse [17] | 149
Mouse [18] | 36.8

concentration in plasma [ng/mL]
Settings | 0.25 h | 3 h | 4 h | 10 h | 10 min
Rat [14] | 218 | 6.64 | 28.5 | – | 106
Rat [16] | – | – | – | 31.5 | 935

O=C(O)C(F)(F)C(F)(F)C(F)(F)C(F)(F)C(F)(F)C(F)(F)C(F)(F)F [Perfluorooctanoic acid]
Settings | concentration in kidney [ng/g] | concentration in liver [ng/g]
Rat [19] | – | 63300
Rat [20] | 365 | –
Rat [21] | 353 | –
Rat [25] | 93700 | –
Rat [26] | 317 | –

Settings | concentration in plasma [ng/mL]
Rat [22], 0.25 h | 465
Rat [22], 0.5 h | 220000
Rat [22], 6 h | 1540
Rat [22], 24 h | 1640
Rat [23], 0.75 h | 295
Rat [23], 12 h | 505
Rat [24], 3 h | 485
Rat [24], 5 min | 58.3

O=N[O-] [Nitrite]
concentration in plasma [ng/mL]
Settings | 1 h | 2 h | 6 h | 10 min
Rat [27] | 32700 | 20600 | – | –
Rat [29] | – | – | 1800 | 24800

Settings | concentration in plasma [ng/mL]
Rat [28] | 30200
